Test results: patent publication US7514571B2, “Bicyclo derivative” (Kyorin Pharmaceutical Co., Ltd., priority 2004, dated 2009)

Key:
[1] = target: T1, plasma dipeptidylpeptidase IV (Homo sapiens, UniProt P27487); assay: In vitro dipeptidylpeptidase IV inhibition (H-Gly-Pro-AMC hydrolysis by plasma, fluorometry); type: biochemical; details: plasma diluted 8-fold, H-Gly-Pro-AMC.HBr substrate, room temperature, 20 minutes
T1 construct: 20 μL of plasma diluted 8-fold with saline in a well of a 96-well flat bottom plate; from tissue
Experimental: The concentration of free 7-amino-4-methyl-coumarin (AMC) generated by hydrolysis of H-Gly-Pro-AMC.HBr substrate by plasma dipeptidylpeptidase IV was determined by fluorometry.
A 20 μL of buffer (25 mmol/L hepes, 140 mmol/L sodium chloride, 1% bovine serum albumin, 80 mmol/L magnesium chloride hexahydrate, pH 7.4) containing each compound was added to 20 μL of plasma diluted 8-fold with saline in a well of a 96-well flat bottom plate. The plate was left at room temperature for 5 minutes and 10 μL of 0.1 mmol/L H-Gly-Pro-AMC.HBr solution was added to each well to initiate the reaction. […] Using a fluorescent plate reader, the free AMC concentration was determined by exciting the samples at 355 nm and measuring the fluorescence intensity at 460 nm.

[2] = target: T2, plasma dipeptidylpeptidase IV (Mus musculus, UniProt P28843); assay: Inhibition of plasma dipeptidylpeptidase IV activity in mice by oral administration; type: in vivo; details: male ICR mice, 0.1 mg/mL suspension at 10 mL/kg, 30 minutes after administration
T2 construct: The blood samples were centrifuged at 6000 rpm for 2 minutes to separate plasma; from tissue; host or cells: plasma of male ICR mice (Charles River Laboratories Japan)
Experimental: Each compound was suspended in 0.3% sodium carboxymethylcellulose to a concentration of 0.1 mg/mL. The preparation was orally administered to 8 weeks old male ICR mice (Charles River Laboratories Japan) at a dose of 10 mL/kg. Using an EDTA 2K-treated capillary tube, blood samples were collected from the tail vein before administration and 30 minutes after administration. The blood samples were centrifuged at 6000 rpm for 2 minutes to separate plasma. […] The inhibition was determined from the decrease in the enzymatic activity from the initial activity (% inhibition={(activity before administration−activity after administration)/(activity before administration)}×100).

T1 sequence (P27487 39-766 limits assumed): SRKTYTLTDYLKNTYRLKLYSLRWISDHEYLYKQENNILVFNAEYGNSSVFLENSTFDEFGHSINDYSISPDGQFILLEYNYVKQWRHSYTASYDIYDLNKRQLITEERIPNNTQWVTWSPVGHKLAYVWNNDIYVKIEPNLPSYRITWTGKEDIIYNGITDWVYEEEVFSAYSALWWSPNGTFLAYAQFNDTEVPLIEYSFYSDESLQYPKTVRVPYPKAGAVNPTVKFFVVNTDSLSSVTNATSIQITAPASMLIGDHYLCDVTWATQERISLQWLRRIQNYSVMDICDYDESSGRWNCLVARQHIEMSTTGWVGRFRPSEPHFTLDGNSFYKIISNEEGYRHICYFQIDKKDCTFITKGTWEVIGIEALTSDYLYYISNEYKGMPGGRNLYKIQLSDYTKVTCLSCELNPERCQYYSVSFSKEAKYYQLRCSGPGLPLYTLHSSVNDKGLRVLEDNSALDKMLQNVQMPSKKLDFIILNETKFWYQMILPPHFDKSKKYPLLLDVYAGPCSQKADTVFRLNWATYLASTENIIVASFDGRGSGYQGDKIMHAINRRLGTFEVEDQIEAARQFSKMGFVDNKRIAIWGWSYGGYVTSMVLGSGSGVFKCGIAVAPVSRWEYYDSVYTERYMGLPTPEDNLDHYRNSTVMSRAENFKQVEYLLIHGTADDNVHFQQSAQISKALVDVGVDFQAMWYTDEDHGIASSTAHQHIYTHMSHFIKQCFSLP
T2 sequence (P28843 37-760 limits assumed): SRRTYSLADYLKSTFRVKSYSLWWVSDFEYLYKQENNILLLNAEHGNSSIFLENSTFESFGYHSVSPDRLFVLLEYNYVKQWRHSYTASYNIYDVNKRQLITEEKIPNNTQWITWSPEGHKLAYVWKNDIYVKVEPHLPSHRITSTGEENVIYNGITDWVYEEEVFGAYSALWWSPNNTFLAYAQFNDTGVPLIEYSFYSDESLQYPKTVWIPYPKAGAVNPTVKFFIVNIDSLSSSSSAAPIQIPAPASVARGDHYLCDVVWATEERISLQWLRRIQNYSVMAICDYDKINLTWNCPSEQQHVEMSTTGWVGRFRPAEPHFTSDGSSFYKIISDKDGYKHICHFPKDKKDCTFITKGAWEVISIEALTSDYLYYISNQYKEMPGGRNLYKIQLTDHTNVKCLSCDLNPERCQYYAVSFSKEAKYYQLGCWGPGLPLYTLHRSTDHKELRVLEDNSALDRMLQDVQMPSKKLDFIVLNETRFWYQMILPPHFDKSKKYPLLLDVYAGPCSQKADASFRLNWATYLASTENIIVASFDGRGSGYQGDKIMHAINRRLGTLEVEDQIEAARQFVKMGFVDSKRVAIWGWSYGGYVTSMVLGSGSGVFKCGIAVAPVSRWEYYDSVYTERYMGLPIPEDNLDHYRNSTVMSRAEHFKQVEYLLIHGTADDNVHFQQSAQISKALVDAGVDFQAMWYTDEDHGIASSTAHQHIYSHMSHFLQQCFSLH

IC50 [1] [nM]	inhibition at 1 mg/kg [2] [%]	SMILES
3.1		N#C[C@@H]1C[C@H](F)CN1C(=O)CNC12CCC(C(=O)O)(CC1)CC2 [Example 1, (2S,4S)-1-[[N-(4-carboxybicyclo[2,2,2]oct-1-yl)amino]acetyl]-4-fluoropyrrolidine-2-carbonitrile]
0.25	100	CC12CCC(NCC(=O)N3C[C@@H](F)C[C@H]3C#N)(CC1)CC2 [Example 3, (2S,4S)-1-[[N-(4-methylbicyclo[2,2,2]oct-1-yl)amino]acetyl]-4-fluoropyrrolidine-2-carbonitrile]
1.1		N#C[C@@H]1C[C@H](F)CN1C(=O)CNC12CCC(CO)(CC1)CC2 [Example 5, (2S,4S)-1-[[N-(4-hydroxymethylbicyclo[2,2,2]oct-1-yl)amino]acetyl]-4-fluoropyrrolidine-2-carbonitrile]
	91	N#C[C@@H]1C[C@H](F)CN1C(=O)CNC12CCC(F)(CC1)CC2 [Example 7, (2S,4S)-1-[[N-(4-fluorobicyclo[2,2,2]oct-1-yl)amino]acetyl]-4-fluoropyrrolidine-2-carbonitrile]
